Test results reported in ChEMBL document CHEMBL1154730, “Novel quinolines and pyrimido[4,5-b]quinolines bearing biologically active sulfonamide moiety as a new class of antitumor agents” (Eur J Med Chem, 2010).
≈ marks a conversion by molar mass, not a printed value.

Experiments:
[1] = Cytotoxicity against mouse EAC cells assessed as non-viable cells at 100 ug/ml after 2 hrs by trypan blue exclusion; format: functional, Ehrlich
[2] = Cytotoxicity against mouse EAC cells assessed as non-viable cells at 50 ug/ml after 2 hrs by trypan blue exclusion; format: functional, Ehrlich
[3] = Cytotoxicity against mouse EAC cells assessed as non-viable cells at 25 ug/ml after 2 hrs by trypan blue exclusion; format: functional, Ehrlich
[4] = Cytotoxicity against mouse EAC cells assessed as non-viable cells at 10 ug/ml after 2 hrs by trypan blue exclusion; format: functional, Ehrlich
[5] = Cytotoxicity against mouse EAC cells after 2 hrs by trypan blue exclusion; format: functional, cell-based; conditions: ehrlich

| SMILES | Activity [1] [%] | Activity [2] [%] | Activity [3] [%] | Activity [4] [%] | IC50 [5] [µg/mL] |
| --- | --- | --- | --- | --- | --- |
| N#CC1=C(NC(=S)Nc2ccccc2)N(c2ccc(S(N)(=O)=O)cc2)C2=C(C(=O)CCC2)C1c1ccc(Cl)cc1Cl (stereo not given) | 95 | 55 | 50 | 40 | 25 (≈ 40 µM) |
| N=c1c2c([nH]c(=S)n1-c1ccccc1)N(c1ccc(S(N)(=O)=O)cc1)C1=C(C(=O)CCC1)C2c1ccc(Cl)cc1Cl (stereo not given) | 60 | 50 | 30 | 10 | 50 (≈ 80.1 µM) |
| N#CC1=C(NS(=O)(=O)c2ccc([N+](=O)[O-])cc2)N(c2ccc(S(N)(=O)=O)cc2)C2=C(C(=O)CCC2)C1c1ccc(Cl)cc1Cl (stereo not given) | 90 | 85 | 85 | 50 | 20 (≈ 29.6 µM) |
| N#CC1=C(N)N(c2ccc(S(N)(=O)=O)cc2)C2=C(C(=O)CCC2)C1c1ccc(Cl)cc1Cl (stereo not given) | 95 | 65 | 50 | 40 | 25 (≈ 51.1 µM) |
| NS(=O)(=O)c1ccc(N2C3=C(C(=O)CCC3)C(c3ccc(Cl)cc3Cl)c3c2[nH]c(=S)[nH]c3=S)cc1 (stereo not given) | 57 | 39 | 30 | 11 | > 100 |
| N#CC1=C(NC(=O)CCC(=O)O)N(c2ccc(S(N)(=O)=O)cc2)C2=C(C(=O)CCC2)C1c1ccc(Cl)cc1Cl (stereo not given) | 60 | 50 | 35 | 20 | 50 (≈ 84.8 µM) |
| N#CC1=C(NC(=S)Nc2ccc(Br)cc2)N(c2ccc(S(N)(=O)=O)cc2)C2=C(C(=O)CCC2)C1c1ccc(Cl)cc1Cl (stereo not given) | 90 | 90 | 50 | 50 | 25 (≈ 35.5 µM) |
| COc1cccc2c1C(=O)c1c(O)c3c(c(O)c1C2=O)C[C@@](O)(C(=O)CO)C[C@@H]3O[C@H]1C[C@H](N)[C@H](O)[C@H](C)O1 [DOXORUBICIN] | 100 | 68 | 32 | 19 | 38 (≈ 69.9 µM) |
| Nc1nc(=O)[nH]c2c1C(c1ccc(Cl)cc1Cl)C1=C(CCCC1=O)N2c1ccc(S(N)(=O)=O)cc1 (stereo not given) | 100 | 90 | 80 | 80 | 6.9 (≈ 13 µM) |
| N=c1c2c([nH]c(=S)n1-c1ccc(Br)cc1)N(c1ccc(S(N)(=O)=O)cc1)C1=C(C(=O)CCC1)C2c1ccc(Cl)cc1Cl (stereo not given) | 70 | 50 | 30 | 30 | 50 (≈ 71.1 µM) |
| N#CC1=C(N2C(=O)CCC2=O)N(c2ccc(S(N)(=O)=O)cc2)C2=C(C(=O)CCC2)C1c1ccc(Cl)cc1Cl (stereo not given) | 90 | 70 | 50 | 20 | 25 (≈ 43.7 µM) |
| CCCCNC(=S)NC1=C(C#N)C(c2ccc(Cl)cc2Cl)C2=C(CCCC2=O)N1c1ccc(S(N)(=O)=O)cc1 (stereo not given) | 40 | 35 | 30 | 30 | > 100 |
| N=c1c2c([nH]c(=S)n1-c1ccc(Cl)cc1)N(c1ccc(S(N)(=O)=O)cc1)C1=C(C(=O)CCC1)C2c1ccc(Cl)cc1Cl (stereo not given) | 95 | 90 | 60 | 50 | 10 (≈ 15.2 µM) |
| C=CCn1c(=S)[nH]c2c(c1=N)C(c1ccc(Cl)cc1Cl)C1=C(CCCC1=O)N2c1ccc(S(N)(=O)=O)cc1 (stereo not given) | 75 | 50 | 40 | 30 | 50 (≈ 85 µM) |
| C=CCNC(=S)NC1=C(C#N)C(c2ccc(Cl)cc2Cl)C2=C(CCCC2=O)N1c1ccc(S(N)(=O)=O)cc1 (stereo not given) | 40 | 33 | 30 | 10 | > 100 |
| Nc1nc(=S)[nH]c2c1C(c1ccc(Cl)cc1Cl)C1=C(CCCC1=O)N2c1ccc(S(N)(=O)=O)cc1 (stereo not given) | 100 | 100 | 50 | 30 | 25 (≈ 45.6 µM) |
| N#CC1=C(NC(=S)Nc2ccc(Cl)cc2)N(c2ccc(S(N)(=O)=O)cc2)C2=C(C(=O)CCC2)C1c1ccc(Cl)cc1Cl (stereo not given) | 100 | 100 | 60 | 30 | 40 (≈ 60.7 µM) |
| N#CC1=C(NC(N)=O)N(c2ccc(S(N)(=O)=O)cc2)C2=C(C(=O)CCC2)C1c1ccc(Cl)cc1Cl (stereo not given) | 60 | 40 | 35 | 20 | 75 (≈ 141 µM) |
| CCCCn1c(=S)[nH]c2c(c1=N)C(c1ccc(Cl)cc1Cl)C1=C(CCCC1=O)N2c1ccc(S(N)(=O)=O)cc1 (stereo not given) | 80 | 80 | 70 | 70 | 7 (≈ 11.6 µM) |
| N#CC1=C(NS(=O)(=O)c2ccc(Br)cc2)N(c2ccc(S(N)(=O)=O)cc2)C2=C(C(=O)CCC2)C1c1ccc(Cl)cc1Cl (stereo not given) | 100 | 90 | 90 | 90 | 5.5 (≈ 7.76 µM) |
